Test results as given in the NIST ThermoML archive (doi:10.1016/j.fluid.2016.12.017).

Experiment: mean ionic activity coefficient (dimensionless); mn = molality of the nth substance listed, in mol/kg
Settings: 101 kPa, Liquid, galvanic cell

CCn1cc[n+](C)c1.[Br-] [1-ethyl-3-methylimidazolium bromide] + O
mean ionic activity coefficient
Settings | 298.2 K | 308.2 K
m1 = 0.01 | 0.888 | 0.895
m1 = 0.0199 | 0.846 | 0.859
m1 = 0.0397 | 0.791 | 0.813
m1 = 0.0592 | 0.753 | 0.781
m1 = 0.0785 | 0.723 | 0.757
m1 = 0.1001 | 0.696 | 0.735
m1 = 0.1995 | 0.611 | 0.665
m1 = 0.3996 | 0.523 | 0.585
m1 = 0.6004 | 0.474 | 0.534
m1 = 0.7996 | 0.441 | 0.497
m1 = 1.001 | 0.417 | 0.467
m1 = 1.2 | 0.398 | 0.442
m1 = 1.4 | 0.382 | 0.42
m1 = 1.6 | 0.367 | 0.4
m1 = 1.8 | 0.354 | 0.382
m1 = 2 | 0.341 | 0.366
m1 = 2.2 | – | 0.351
